Measurements taken from ChEMBL document CHEMBL3885881, “DrugMatrix”.

Species: Rattus norvegicus
Assay: DrugMatrix - Regimen: Daily Repeat
Type: toxicity, organism-based, Sprague-Dawley
Design: regimen Daily Repeat, gender Male, age 6-8 weeks
Settings: in vivo, po, route oral GAVAGE, vehicle 100 % WATER; for ABSOLUTE BASOPHIL / ABSOLUTE EOSINOPHIL / ABSOLUTE LYMPHOCYTE / ABSOLUTE MONOCYTE / ABSOLUTE SEGMENTED NEUTROPHIL / BASOPHIL / EOSINOPHIL / ERYTHROCYTE COUNT / HEMATOCRIT / HEMOGLOBIN / LEUKOCYTE COUNT / LYMPHOCYTE / MEAN CORPUSCULAR HEMOGLOBIN / MEAN CORPUSCULAR HEMOGLOBIN CONCENTRATION / MEAN CORPUSCULAR VOLUME / MONOCYTE / NEUTROPHIL / NUCLEATED RED BLOOD CELLS / PLATELET COUNT: tissue Blood; for ALANINE AMINOTRANSFERASE / ALBUMIN / ALKALINE PHOSPHATASE / ASPARTATE AMINOTRANSFERASE / BLOOD UREA NITROGEN / CARBON DIOXIDE / CHLORIDE / CHOLESTEROL / CREATINE PHOSPHOKINASE / CREATININE / GLUCOSE / LACTATE DEHYDROGENASE / LIPASE / PHOSPHORUS / POTASSIUM / SODIUM / TOTAL BILIRUBIN / TOTAL PROTEIN / URIC ACID: tissue Plasma
[1] = 20 mg/kg, 120 h, dose level Low, time 5 day
[2] = 70 mg/kg, 72 h, dose level High, time 3 day
[3] = 70 mg/kg, 120 h, dose level High, time 5 day

**Q.** Which results are given for C=CCC1(C(C)CCC)C(=O)NC(=O)NC1=O (centres undefined) [SECOBARBITAL]?
**A.** ABSOLUTE BASOPHIL [1]: 0 CELLS/uL; ABSOLUTE EOSINOPHIL [1]: 32 CELLS/uL; ABSOLUTE LYMPHOCYTE [1]: 7003.67 CELLS/uL; ABSOLUTE MONOCYTE [1]: 32 CELLS/uL; ABSOLUTE SEGMENTED NEUTROPHIL [1]: 565.67 CELLS/uL; BASOPHIL [1]: 0%; EOSINOPHIL [1]: 0.33%; ERYTHROCYTE COUNT [1]: 5.26 x10E6/uL; HEMATOCRIT [1]: 32.97%; HEMOGLOBIN [1]: 12.83 G/DL; LEUKOCYTE COUNT [1]: 7.63 x10E3/uL; LYMPHOCYTE [1]: 92%; MEAN CORPUSCULAR HEMOGLOBIN [1]: 24.43 pg; MEAN CORPUSCULAR HEMOGLOBIN CONCENTRATION [1]: 38.97 G/DL; MEAN CORPUSCULAR VOLUME [1]: 62.7 fL; MONOCYTE [1]: 0.33%; NEUTROPHIL [1]: 7.33%; NUCLEATED RED BLOOD CELLS [1]: 0.33 /100WBC; PLATELET COUNT [1]: 1182 x10E3/uL; ALANINE AMINOTRANSFERASE [1]: 49.33 u/L; ALBUMIN [1]: 3.97 G/DL; ALKALINE PHOSPHATASE [1]: 382 u/L; ASPARTATE AMINOTRANSFERASE [1]: 77.67 u/L; BLOOD UREA NITROGEN [1]: 13.67 mg/dL; CARBON DIOXIDE [1]: 34 mmol/L; CHLORIDE [1]: 99 MEQ/L; CHOLESTEROL [1]: 77.33 mg/dL; CREATINE PHOSPHOKINASE [1]: 254 u/L; CREATININE [1]: 0.16 mg/dL; GLUCOSE [1]: 144 mg/dL; LACTATE DEHYDROGENASE [1]: 142.33 u/L; LIPASE [1]: 9 u/L; PHOSPHORUS [1]: 11.07 mg/dL; POTASSIUM [1]: 5.94 MEQ/L; SODIUM [1]: 144.5 MEQ/L; TOTAL BILIRUBIN [1]: 0.17 mg/dL; TOTAL PROTEIN [1]: 5.87 G/DL; URIC ACID [1]: 0.4 mg/dL; ABSOLUTE BASOPHIL [2]: 0 CELLS/uL; ABSOLUTE EOSINOPHIL [2]: 0 CELLS/uL; ABSOLUTE LYMPHOCYTE [2]: 6560.67 CELLS/uL; ABSOLUTE MONOCYTE [2]: 45.33 CELLS/uL; ABSOLUTE SEGMENTED NEUTROPHIL [2]: 794 CELLS/uL; BASOPHIL [2]: 0%; EOSINOPHIL [2]: 0%; ERYTHROCYTE COUNT [2]: 5.13 x10E6/uL; HEMATOCRIT [2]: 31.93%; HEMOGLOBIN [2]: 12.3 G/DL; LEUKOCYTE COUNT [2]: 7.4 x10E3/uL; LYMPHOCYTE [2]: 88.67%; MEAN CORPUSCULAR HEMOGLOBIN [2]: 24 pg; MEAN CORPUSCULAR HEMOGLOBIN CONCENTRATION [2]: 38.53 G/DL; MEAN CORPUSCULAR VOLUME [2]: 62.27 fL; MONOCYTE [2]: 0.67%; NEUTROPHIL [2]: 10.67%; NUCLEATED RED BLOOD CELLS [2]: 0.33 /100WBC; PLATELET COUNT [2]: 827 x10E3/uL; ALANINE AMINOTRANSFERASE [2]: 56.67 u/L; ALBUMIN [2]: 4.03 G/DL; ALKALINE PHOSPHATASE [2]: 339 u/L; ASPARTATE AMINOTRANSFERASE [2]: 83 u/L; BLOOD UREA NITROGEN [2]: 12 mg/dL; CARBON DIOXIDE [2]: 34.67 mmol/L; CHLORIDE [2]: 98.67 MEQ/L; CHOLESTEROL [2]: 74.67 mg/dL; CREATINE PHOSPHOKINASE [2]: 397.33 u/L; CREATININE [2]: 0.11 mg/dL; GLUCOSE [2]: 142.33 mg/dL; LACTATE DEHYDROGENASE [2]: 178.33 u/L; LIPASE [2]: 9.67 u/L; PHOSPHORUS [2]: 11.4 mg/dL; POTASSIUM [2]: 6.11 MEQ/L; SODIUM [2]: 143 MEQ/L; TOTAL BILIRUBIN [2]: 0.17 mg/dL; TOTAL PROTEIN [2]: 5.87 G/DL; URIC ACID [2]: 0.63 mg/dL; ABSOLUTE BASOPHIL [3]: 0 CELLS/uL; ABSOLUTE EOSINOPHIL [3]: 40.33 CELLS/uL; ABSOLUTE LYMPHOCYTE [3]: 5577 CELLS/uL; ABSOLUTE MONOCYTE [3]: 23 CELLS/uL; ABSOLUTE SEGMENTED NEUTROPHIL [3]: 693 CELLS/uL; BASOPHIL [3]: 0%; EOSINOPHIL [3]: 0.67%; ERYTHROCYTE COUNT [3]: 5.58 x10E6/uL; HEMATOCRIT [3]: 33.8%; HEMOGLOBIN [3]: 13.07 G/DL; LEUKOCYTE COUNT [3]: 6.33 x10E3/uL; LYMPHOCYTE [3]: 88%; MEAN CORPUSCULAR HEMOGLOBIN [3]: 23.4 pg; MEAN CORPUSCULAR HEMOGLOBIN CONCENTRATION [3]: 38.67 G/DL; MEAN CORPUSCULAR VOLUME [3]: 60.5 fL; MONOCYTE [3]: 0.33%; NEUTROPHIL [3]: 11%; NUCLEATED RED BLOOD CELLS [3]: 0.33 /100WBC; PLATELET COUNT [3]: 1210.33 x10E3/uL; ALANINE AMINOTRANSFERASE [3]: 59.33 u/L; ALBUMIN [3]: 4.03 G/DL; ALKALINE PHOSPHATASE [3]: 373.67 u/L; ASPARTATE AMINOTRANSFERASE [3]: 85.33 u/L; BLOOD UREA NITROGEN [3]: 15.33 mg/dL; CARBON DIOXIDE [3]: 32.33 mmol/L; CHLORIDE [3]: 100 MEQ/L; CHOLESTEROL [3]: 63.33 mg/dL; CREATINE PHOSPHOKINASE [3]: 260.67 u/L; CREATININE [3]: 0.13 mg/dL; GLUCOSE [3]: 147 mg/dL; LACTATE DEHYDROGENASE [3]: 127.67 u/L; LIPASE [3]: 9 u/L; PHOSPHORUS [3]: 10.93 mg/dL; POTASSIUM [3]: 5.66 MEQ/L; SODIUM [3]: 145.65 MEQ/L; TOTAL BILIRUBIN [3]: 0.1 mg/dL; TOTAL PROTEIN [3]: 5.8 G/DL; URIC ACID [3]: 0.73 mg/dL
